From ChEMBL document CHEMBL1135674, “A new series of estrogen receptor modulators that display selectivity for estrogen receptor beta” (J Med Chem, 2002) come the findings set out here.

In assay [1] the target is T1, Estrogen receptor beta (Homo sapiens, UniProt Q92731). To be noted: T47D.
The target in assay [2] is T2, Estrogen receptor (Homo sapiens, UniProt P03372).
T2 sequence (P03372 whole entry): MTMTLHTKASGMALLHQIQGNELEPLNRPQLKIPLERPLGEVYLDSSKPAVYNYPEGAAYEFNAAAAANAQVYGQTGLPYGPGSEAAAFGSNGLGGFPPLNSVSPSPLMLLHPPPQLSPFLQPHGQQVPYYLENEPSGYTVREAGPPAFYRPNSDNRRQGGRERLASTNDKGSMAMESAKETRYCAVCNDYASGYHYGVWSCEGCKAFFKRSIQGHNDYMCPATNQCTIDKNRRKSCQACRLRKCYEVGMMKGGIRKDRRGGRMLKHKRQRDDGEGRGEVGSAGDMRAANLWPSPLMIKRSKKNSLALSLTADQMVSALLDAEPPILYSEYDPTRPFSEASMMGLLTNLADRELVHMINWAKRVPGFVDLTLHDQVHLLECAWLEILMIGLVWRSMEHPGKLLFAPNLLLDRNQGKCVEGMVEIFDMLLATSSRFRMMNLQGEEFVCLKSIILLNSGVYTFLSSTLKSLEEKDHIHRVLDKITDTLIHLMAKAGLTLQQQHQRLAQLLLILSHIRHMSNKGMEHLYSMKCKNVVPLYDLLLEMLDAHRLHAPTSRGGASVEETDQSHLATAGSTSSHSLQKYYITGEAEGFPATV

Assay [3] deals with T1, Estrogen receptor beta.
The target of assay [4] is T1, Estrogen receptor beta. The source holds these as a separate data set.
Assay [5] deals with T2, Estrogen receptor. This is another data set of the same source.
In assay [6] the target is T2, Estrogen receptor. This is another data set of the same source.

The Ki is a measure of affinity in units of concentration, obtained from inhibition or displacement. In general, IC50 refers to the point on the concentration scale where inhibition reaches its midpoint. A lower IC50 goes with higher potency. By EC50 is commonly meant the concentration that produces a half-maximal response. Low values mean higher potency in that assay, high ones lower potency in that assay.

Activity calls are given as the source filed them. No cut-off for these calls is given here.

T1 sequence (Q92731 whole entry): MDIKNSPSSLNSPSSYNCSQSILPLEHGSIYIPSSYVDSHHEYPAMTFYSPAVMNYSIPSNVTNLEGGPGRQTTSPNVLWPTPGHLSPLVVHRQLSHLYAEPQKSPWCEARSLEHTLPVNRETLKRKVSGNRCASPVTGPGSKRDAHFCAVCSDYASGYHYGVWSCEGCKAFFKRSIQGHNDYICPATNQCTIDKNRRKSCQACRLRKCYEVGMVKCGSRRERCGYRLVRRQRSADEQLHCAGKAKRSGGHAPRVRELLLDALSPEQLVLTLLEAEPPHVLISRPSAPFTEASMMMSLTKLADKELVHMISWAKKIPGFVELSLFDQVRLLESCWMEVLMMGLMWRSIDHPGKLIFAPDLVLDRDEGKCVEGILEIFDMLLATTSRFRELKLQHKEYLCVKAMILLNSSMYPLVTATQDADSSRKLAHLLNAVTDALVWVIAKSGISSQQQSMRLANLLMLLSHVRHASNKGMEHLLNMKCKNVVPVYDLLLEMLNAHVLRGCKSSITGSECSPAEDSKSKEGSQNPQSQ

As for `CN(C[C@@H]1C[C@@H]1c1ccccc1)c1nc(NCCc2ccc(O)cc2)nc(N2CCNCC2)n1` (relative stereo), the IA result in assay [1] was “inactive”.

With `CCC(=O)CCN1CCN(c2nc(NCCc3ccc(O)cc3)nc(N(C)CCCc3ccc(Cl)cc3)n2)CC1`, the Ki in assay [2] was found to be 250 nM; in assay [3], 40 nM.

As for `CN(CCCc1ccc(F)c(F)c1)c1nc(NCCc2ccc(O)cc2)nc(N2CCNCC2)n1`, the results for the Ki in assay [2] and in assay [3] were 200 nM and 20 nM, respectively.

In the case of `Cc1ccc(CCCN(C)c2nc(NCCc3ccc(O)cc3)nc(N3CCNCC3)n2)cc1`, the Ki in assay [2] amounted to 1140 nM; in assay [3], 100 nM.

Turning to `Cc1nc(CN2CCN(c3nc(NCCc4ccc(O)cc4)nc(N(C)CCCc4ccc(Cl)cc4)n3)CC2)cs1`, the IC50 in assay [4] was found to be 5 nM. This compound returned a Ki in assay [3] of 25 nM. The IA result in assay [1] was “inactive”.

For `CN(CCCc1ccc(Cl)cc1)c1nc(NCCc2ccc(O)cc2)nc(N2CCN(S(=O)(=O)Cc3ccccc3)CC2)n1`, the Ki came out at 1450 nM in assay [2] and 490 nM in assay [3].

Turning to `CN(CCCc1ccc(Cl)cc1)c1nc(NCCc2ccc(O)cc2)nc(N2CCN(Cc3ccccn3)CC2)n1`, in assay [3], the Ki is 50 nM.

As to `CN(CCCc1ccc(Cl)cc1)c1nc(NCCc2ccc(O)cc2)nc(N2CCN(CCO)CC2)n1`, the values for the Ki in assay [2] and in assay [3] were 395 nM and 15 nM, respectively. Further, the concentration for half-maximal inhibition (IC50) in assay [4] amounted to 15 nM; in assay [6] it was 30 nM. The IA entry in assay [1] is “inactive”. Moreover, a half-maximal response in assay [5] (EC50) required 180 nM.

As for `CN(CCCc1ccc(Cl)cc1)c1nc(NCCc2ccc(O)cc2)nc(N2C[C@@H]3C[C@H]2CN3)n1`, the inhibition constant Ki in assay [2] amounted to 2280 nM; in assay [3] it was 105 nM.

For `CN1CCN(c2nc(NCCCc3ccccc3)nc(N3CCc4cc(O)ccc4C3)n2)CC1`, the Ki in assay [2] and in assay [3] was greater than 10000 nM throughout.

As to `CN(CCCc1ccc(Cl)cc1)c1nc(NCCc2ccc(O)cc2)nc(N2CCN(C(=O)CCc3ccccc3)CC2)n1`, the inhibition constant Ki in assay [2] came out at 1050 nM; in assay [3], 110 nM.

Take `Oc1ccc(CCNc2nc(SCCOc3ccc(Cl)cc3)nc(N3CCNCC3)n2)cc1`: the values for the Ki in assay [2] and in assay [3] were 570 nM and 90 nM, respectively.

Consider `CN(CCCc1ccc(C#N)cc1)c1nc(NCCc2ccc(O)cc2)nc(N2CCNCC2)n1`, for which the inhibitory constant (Ki) in assay [2] is 570 nM; in assay [3], 90 nM.

`Oc1ccc(CCNc2nc(SCCCc3ccc(Cl)cc3)nc(N3CCNCC3)n2)cc1`: the IA result in assay [1] is “inactive”.

With `CCN(CCCc1ccc(Cl)cc1)c1nc(NCCc2ccc(O)cc2)nc(N2CCNCC2)n1`, the Ki in assay [2] is 830 nM; in assay [3], 100 nM.

As to `CN1CCN(c2nc(NCCCc3ccccc3)nc(NCCc3ccc(O)cc3)n2)CC1`, the Ki was determined as 3240 nM in assay [2] and 490 nM in assay [3].

Consider `CN(CCCc1ccc(Cl)cc1)c1nc(NCCc2ccc(O)cc2)nc(N2CCN(S(=O)(=O)/C=C/c3ccccc3)CC2)n1`, for which the values for the inhibition constant (Ki) in assay [2] and in assay [3] were 1300 nM and 225 nM, respectively.

As for `Oc1ccc(CCNc2nc(NCCCc3ccccc3)nc(N3CCNCC3)n2)cc1`, the inhibition constant Ki in assay [2] amounted to 1380 nM; in assay [3], 200 nM.

As to `CN1CCN(c2nc(NCCc3ccc(O)cc3)nc(SCCCc3ccccc3)n2)CC1`, the Ki is 270 nM in assay [2] and 50 nM in assay [3].

For the compound `Oc1ccc(CCNc2nc(NCCCc3ccc(Cl)cc3)nc(N3CCNCC3)n2)cc1`, the Ki was 200 nM in assay [2] and 55 nM in assay [3].

Regarding `CCN(CC)C(=O)N1CCN(c2nc(NCCc3ccc(O)cc3)nc(N(C)CCCc3ccc(Cl)cc3)n2)CC1`, the Ki in assay [2] was greater than 10000 nM; in assay [3], 790 nM.

Turning to `CN1CCN(c2nc(NCCCc3ccccc3)nc(NCc3ccc(O)cc3)n2)CC1`, the Ki is 5130 nM in assay [2] and 3690 nM in assay [3].

For `CN(CCCc1ccc(Cl)cc1)c1nc(NCCc2ccc(O)cc2)nc(N2CCN(CC(=O)c3ccccc3)CC2)n1`, the values for the Ki in assay [2] and in assay [3] were 2040 nM and 200 nM, respectively.

On to `CN(CCCc1ccc(Cl)cc1)c1nc(NCCc2ccc(O)cc2)nc(N2CCN(C(=O)COc3ccccc3)CC2)n1`, for which the figures for the Ki in assay [2] and in assay [3] were 570 nM and 100 nM, respectively.

For the compound `CN1CCN(c2nc(NCCc3ccc(O)cc3)nc(OCCCc3ccccc3)n2)CC1`, the inhibition constant Ki in assay [2] was 2400 nM; in assay [3], 1000 nM.

As to `COc1ccc(C(=O)N2CCN(c3nc(NCCc4ccc(O)cc4)nc(N(C)CCCc4ccc(Cl)cc4)n3)CC2)cc1`, the Ki in assay [2] amounted to 1130 nM; in assay [3], 110 nM.

For `CN(CCCc1ccc(Cl)cc1)c1nc(NCCc2ccc(O)cc2)nc(N2CCN(c3ccccc3)CC2)n1`, the values for the Ki in assay [2] and in assay [3] were 6320 nM and 890 nM, respectively.

Regarding `CN(CCCc1ccc(Cl)cc1Cl)c1nc(NCCc2ccc(O)cc2)nc(N2CCNCC2)n1`, the results for the Ki in assay [2] and in assay [3] were 125 nM and 25 nM, respectively.

Turning to `CN(CCCc1ccc(Cl)cc1)c1nc(NCCc2ccc(O)cc2)nc(N2CCN(C(=O)Nc3ccc(Cl)cc3)CC2)n1`, the values for the Ki in assay [2] and in assay [3] were 855 nM and 425 nM, respectively.

`C=CCN1CCN(c2nc(NCCc3ccc(O)cc3)nc(N(C)CCCc3ccc(Cl)cc3)n2)CC1`: the Ki in assay [2] came out at 360 nM; in assay [3] it was 30 nM.

For `CN(CCCc1ccc2c(c1)OCO2)c1nc(NCCc2ccc(O)cc2)nc(N2CCNCC2)n1`, the Ki in assay [2] is 560 nM; in assay [3], 30 nM.

As for `C[C@@H]1CN(c2nc(NCCc3ccc(O)cc3)nc(N(C)CCCc3ccc(Cl)cc3)n2)C[C@H](C)N1`, the results for the Ki in assay [2] and in assay [3] were 60 nM and 15 nM, respectively.

Regarding `CN1CCN(c2nc(NCCc3ccc(O)cc3)nc(NC3CCc4ccccc43)n2)CC1` (stereo not drawn), the inhibition constant (Ki) in assay [2] and in assay [3] was greater than 10000 nM each time.

Turning to `Oc1ccc(CCNc2nc(NCCc3ccccc3)nc(N3CCNCC3)n2)cc1`, the Ki in assay [2] worked out at 2370 nM; in assay [3], 1750 nM.

As for `CN(CCCc1ccc(Cl)cc1)c1nc(NCCc2ccc(O)cc2)nc(N2CCN(C3CCCC3)CC2)n1`, the results for the Ki in assay [2] and in assay [3] were 180 nM and 40 nM, respectively.

With `Oc1ccc(CCNc2nc(NC/C=C/c3ccccc3)nc(N3CCNCC3)n2)cc1`, the Ki in assay [2] stood at 6870 nM; in assay [3] it was 4200 nM.

The compound `CN(CCCc1ccc(Cl)cc1)c1nc(NCCc2ccc(O)cc2)nc(N2CCN(Cc3cccnc3)CC2)n1` displayed a Ki in assay [3] of 35 nM.

Turning to `CN(CCCc1ccc(Cl)cc1)c1nc(NCCc2ccc(O)cc2)nc(N2CCN(Cc3ccccc3)CC2)n1`, the Ki came to 120 nM in assay [2] and 8 nM in assay [3].

As to `CN(CCCC1CCCCC1)c1nc(NCCc2ccc(O)cc2)nc(N2CCNCC2)n1`, the results for the inhibition constant (Ki) in assay [2] and in assay [3] were 1420 nM and 820 nM, respectively.

On to `CN(C)C(=O)CN1CCN(c2nc(NCCc3ccc(O)cc3)nc(N(C)CCCc3ccc(Cl)cc3)n2)CC1`, for which the Ki in assay [2] amounted to 3000 nM; in assay [3], 270 nM.

On to `CN1CCN(c2nc(NCCc3ccc(O)cc3)nc(N(C)CCCc3ccc(Cl)cc3)n2)CC1`, for which the Ki in assay [2] was 145 nM; in assay [3], 15 nM.

As to `CN(CCCc1ccc(C(F)(F)F)cc1)c1nc(NCCc2ccc(O)cc2)nc(N2CCNCC2)n1`, the Ki in assay [2] came to 480 nM; in assay [3] it was 75 nM.

In the case of `CN1CCN(c2nc(NCCCc3ccccc3)nc(N3CCCC(c4ccc(O)cc4)C3)n2)CC1` (stereo not drawn), the Ki in assay [2] and in assay [3] was greater than 10000 nM throughout.

`CN(CCCc1ccc(Cl)cc1)c1nc(NCCc2ccc(O)cc2)nc(N2CCN(CC(=O)C(C)(C)C)CC2)n1`: the values for the Ki in assay [2] and in assay [3] were 1020 nM and 210 nM, respectively.

As to `CN1CCN(c2nc(NCCCc3ccccc3)nc(NC3CCc4ccc(O)cc4C3)n2)CC1` (stereo not drawn), the Ki in assay [2] and in assay [3] was greater than 10000 nM throughout.

In the case of `CN1CCN(c2nc(NCCCc3ccccc3)nc(NCCc3cccc(O)c3)n2)CC1`, the Ki in assay [2] is greater than 10000 nM; in assay [3], 4250 nM.

In the case of `CC(C)S(=O)(=O)N1CCN(c2nc(NCCc3ccc(O)cc3)nc(N(C)CCCc3ccc(Cl)cc3)n2)CC1`, the results for the inhibition constant (Ki) in assay [2] and in assay [3] were greater than 10000 nM and 600 nM, respectively.

Regarding `CN(CCCc1ccc(Cl)cc1)c1nc(NCCc2ccc(O)cc2)nc(N2CCN(Cc3ccncc3)CC2)n1`, the inhibitory constant (Ki) in assay [2] amounted to 810 nM; in assay [3] it was 115 nM.

For the compound `CN(CCCc1ccc(F)cc1)c1nc(NCCc2ccc(O)cc2)nc(N2CCNCC2)n1`, the Ki in assay [2] was 380 nM; in assay [3] it was 15 nM. The IC50 in assay [4] stood at 15 nM; in assay [6] it was 240 nM. The IA result in assay [1] is “inactive”. For the same compound, a half-maximal response in assay [5] (EC50) required 200 nM.

In the case of `CN1CCN(c2nc(NCCCCc3ccccc3)nc(NCCc3ccc(O)cc3)n2)CC1`, the results for the Ki in assay [2] and in assay [3] were 415 nM and 490 nM, respectively.

Consider `CN(CCCc1ccc(Cl)cc1)c1nc(NCCc2ccc(O)cc2)nc(N2CCN(C(=O)N3CCOCC3)CC2)n1`, for which the results for the Ki in assay [2] and in assay [3] were 2360 nM and 400 nM, respectively.

With `CN1CCN(c2nc(NCCCc3ccccc3)nc(NC3CCc4cc(O)ccc4C3)n2)CC1` (stereo not drawn), the Ki in assay [2] was 1000 nM; in assay [3] it was 170 nM.

With `CN(CCCc1ccccc1Cl)c1nc(NCCc2ccc(O)cc2)nc(N2CCNCC2)n1`, the figures for the Ki in assay [2] and in assay [3] were 680 nM and 40 nM, respectively.

As for `CN(CCOc1ccc(Cl)cc1)c1nc(NCCc2ccc(O)cc2)nc(N2CCNCC2)n1`, the Ki in assay [2] amounted to 1000 nM; in assay [3], 170 nM.
